Entries after “also recorded” stand apart in the source; their conditions may differ. Like-named read-outs stand apart in the source and are kept apart here.
Assays:
Format in all cases: cell-based, mouse
Settings in all cases: 72 hours
VE-cadherin = assay: Western blot analysis of VE-cadherin, CCM3 knock out cells
Experimental: (§1) Cells were seeded 6.3×10^4 cells/cm^2. The day after, PTC209 and UNC1999 were added to the confluent cells. Drugs were left for one or three days depending on the aim of the experiment. Final concentrations used for the two drugs were: 1 uM PTC209 and 5 uM UNC1999.
Confluent cells were lysed with boiling modified Laemi sample Buffer (2% SDS, 20% glycerol, and 125 mM Tris-HCl, pH 6.8). Lysates were incubated for 10 minutes at 100° C. to allow proteins denaturation. Protein concentration was estimated using the BCA Protein Assay Kit (Pierce). Equal amount of proteins was loaded on a gel, separated by SDS-PAGE and transferred to a Protran Nitrocellulose Membrane (Whatman) 0.2 um pores. The membranes were blocked for 1 hour at RT in Tris Buffered Saline (TBS: NaCl 150 mM, Tris-HCl 10 mM pH 7.4) plus 0.1% Tween-20 containing 5% BSA or milk. […] Membranes were rinsed three times with TBST for 5 minutes each and specific bindings were detected by enhanced chemiluminescence (ECL) system (Amersham Bioscience) using ChemiDoc XRS gel imaging system (Bio-Rad).
Experiment with combined PTC209 and UNC1999 treatments was repeated with the same experimental conditions described before and junction organisation was analysed through VE-cadherin staining and protein expression analysis (FIG. 19).

[1] = test system: EndMT markers (Klf4, Sca1 and Fsp1); assay: Western blot analysis of EndMT markers, wild type and CCM3 knock out immortalized lung endothelial cells
Experimental: as §1
(§2) Confluent cells were lysed with boiling modified Laemi sample Buffer (2% SDS, 20% glycerol, and 125 mM Tris-HCl, pH 6.8). Lysates were incubated for 10 minutes at 100° C. to allow proteins denaturation. Protein concentration was estimated using the BCA Protein Assay Kit (Pierce). Equal amount of proteins was loaded on a gel, separated by SDS-PAGE and transferred to a Protran Nitrocellulose Membrane (Whatman) 0.2 um pores. The membranes were blocked for 1 hour at RT in Tris Buffered Saline (TBS: NaCl 150 mM, Tris-HCl 10 mM pH 7.4) plus 0.1% Tween-20 containing 5% BSA or milk. The membranes were incubated with primary antibodies diluted in TBST (TBS plus 0.1% Tween-20) containing 5% of either BSA or milk overnight at 4° C. Next, membranes were rinsed three times with TBST for 5 minutes each and incubated for 45 minutes at RT with HRP-linked secondary antibodies diluted in TBST containing 5% BSA/milk. Membranes were rinsed three times with TBST for 5 minutes each and specific bindings were detected by enhanced chemiluminescence (ECL) system (Amersham Bioscience) using ChemiDoc XRS gel imaging system (Bio-Rad).
Wild type and CCM3 knock out cells were treated with either PTC209 or DMSO starting from the day after seeding, when cells were confluent. For this experiment cells were lysed for western blot and real-time analysis after 72 hours of treatment to check a long-term effect of PTC209.
To perform these experiments, immortalized lung endothelial cells both wild type and CCM3 knock out were treated, with the same experimental strategy used for PTC209, with UNC1999 for 72 hours and subsequently lysed for western blot and real time analysis. UNC1999 was used in its specific optimal concentration, which was different to PTC209. As control DMSO was given to the cells in a volume equal to the volume of DMSO in which UNC1999 was previously dissolved to rich the optimal concentration.
Briefly, wild type and CCM3 knock out cells were treated with either PTC209, UNC1999 or a combination of the two. PTC209 and UNC1999 were administrated at the same concentration used for the single treatment and DMSO was given as control in a volume equal to the sum of volumes of DMSO in which UNC1999 and PTC209 were previously dissolved.

[2] = test system: EndMT markers (Klf4, Sca1 and Fsp1)
Experimental: as §1, §2

Structure (SMILES): COc1cc(Br)c(Nc2nc(-c3c(C)nc4ncccn34)cs2)c(Br)c1 [PTC209, N-(2,6-dibromo-4-methoxyphenyl)-4-(2-methylimidazo[1,2-a]pyrimidin-3-yl)thiazol-2-amine]
- VE-cadherin protein expression level (western blot) (VE-cadherin): did not show any rescue
- Klf4 protein up-regulation induced by CCM3 deletion (western blot) ([1]; CCM3 knock out cells): completely rescued
- levels of Klf4 and Sca1 protein in treated CCM3 knock out cells versus wild type cells ([1]; CCM3 knock out cells, 1 uM PTC209): comparable with the levels expressed by wild type cells
- EndMT markers (Klf4, Sca1, Fsp1) protein expression (western blot) ([1]; CCM3 knock out cells, 1 uM PTC209, 5 uM UNC1999, vs DMSO): strongly downregulated; also recorded: inhibition of the upregulation
- Klf4 protein (western blot) ([1]; wild type cells (physiological condition), CCM3 model): not affected
- EndMT markers (Klf4, Sca1, Fsp1) protein levels (western blot) ([2]; CCM1 knock out cells, vs DMSO): strong inhibition
- Klf4 protein (western blot) ([2]; wild type cells (physiological condition), CCM1 model): not downregulated

— patent US12377092B2, “Polycomb inhibitors and uses thereof” (FONDAZIONE ISTITUTO FIRC DI ONCOLOGIA MOLECOLARE (IFOM), priority 2017, dated 2025)
